Reference: US20220289753A1, “SHP2 INHIBITORS” (IRBM S.P.A., priority 2019, published 2022)

Molecular target: T1, SHP-2 enzyme (Met1-Leu525) (Homo sapiens, UniProt Q06124)
T1 construct: synthetized by Origene, Met1-Leu525, cat #TP750155; purchased Origene TP750155
T1 sequence (Q06124 1-525): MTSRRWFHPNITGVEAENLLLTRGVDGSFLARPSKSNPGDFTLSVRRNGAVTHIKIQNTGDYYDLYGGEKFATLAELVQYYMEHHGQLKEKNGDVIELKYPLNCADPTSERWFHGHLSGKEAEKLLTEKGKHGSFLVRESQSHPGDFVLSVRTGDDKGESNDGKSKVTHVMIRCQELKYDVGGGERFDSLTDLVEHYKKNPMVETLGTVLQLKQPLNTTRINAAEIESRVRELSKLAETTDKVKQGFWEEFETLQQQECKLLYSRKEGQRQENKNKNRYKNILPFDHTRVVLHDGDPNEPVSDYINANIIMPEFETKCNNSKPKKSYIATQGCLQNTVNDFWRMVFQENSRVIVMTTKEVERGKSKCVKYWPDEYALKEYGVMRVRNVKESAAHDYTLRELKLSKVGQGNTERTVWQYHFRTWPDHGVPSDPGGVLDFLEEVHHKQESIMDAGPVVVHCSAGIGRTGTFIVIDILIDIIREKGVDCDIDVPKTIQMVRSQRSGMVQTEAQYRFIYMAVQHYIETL
Test: SHP2 inhibition enzymatic assay (DiFMUP substrate, IRS1 peptide activation)
Assay type: biochemical
Conditions: SHP2 wt; activated by 500 nM IRS1 peptide; 75 μM DiFMUP substrate
Procedure, shortened: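 SHP-2 (Met1-Leu525, 0.5 nM final) preincubated 30 min with compounds and IRS1 activating peptide in HEPES pH 7.2 buffer with NaCl, KCl, EDTA, tween-20, 5 mM DTT. DiFMUP then added for 30 min at room temperature and fluorescence read. IC50 from four-parameter logistic fit of % inhibition.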

| IC50 [µM] | SMILES |
| --- | --- |
| > 3 | FC(F)(F)c1ncccc1Sc1cnc2[nH]c(NCC3CCNCC3)nc2n1 [Example 110, N-(piperidin-4-ylmethyl)-5-((2-(trifluoromethyl)pyridin-3-yl)thio)-1H-imidazo[4,5-b]pyrazin-2-amine] |
| > 3 | FC(F)(F)c1ncccc1Sc1cnc2[nH]c(NCC3COCCN3)nc2n1 (centres unmarked) [Example 111, N-(morpholin-3-ylmethyl)-5-((2-(trifluoromethyl)pyridin-3-yl)thio)-1H-imidazo[4,5-b]pyrazin-2-amine] |
| > 3 | FC(F)(F)c1ncccc1Sc1cnc2[nH]c(NCc3cccnc3N3CCOCC3)nc2n1 [Example 112, N-((2-morpholinopyridin-3-yl)methyl)-5-((2-(trifluoromethyl)pyridin-3-yl)thio)-1H-imidazo[4,5-b]pyrazin-2-amine] |
| > 3 | CC(C)(CNc1nc2nc(Sc3cccnc3C(F)(F)F)cnc2[nH]1)Cc1cccnc1 [Example 113, N-(2,2-dimethyl-3-(pyridin-3-yl)propyl)-5-((2-(trifluoromethyl)pyridin-3-yl)thio)-1H-imidazo[4,5-b]pyrazin-2-amine] |
| < 0.5 | Cc1c(Cl)cccc1Sc1cnc2[nH]c(N3CCC(C)(N)CC3)nc2n1 [Example 114, 1-(5-((3-chloro-2-methylphenyl)thio)-1H-imidazo[4,5-b]pyrazin-2-yl)-4-methylpiperidin-4-amine] |
| 0.5 to 3 | CC(C)c1ccccc1Sc1cnc2[nH]c(N3CCC(C)(N)CC3)nc2n1 [Example 115, 1-(5-((2-isopropylphenyl)thio)-1H-imidazo[4,5-b]pyrazin-2-yl)-4-methylpiperidin-4-amine] |
| 0.5 to 3 | CC1(N)CCN(c2nc3nc(Sc4cccc5[nH]cnc45)cnc3[nH]2)CC1 [Example 116] |
| > 3 | CC1(N)CCN(c2nc3nc(Sc4ccccc4S(C)(=O)=O)cnc3[nH]2)CC1 [Example 117, 4-methyl-1-(5-((2-(methylsulfonyl)phenyl)thio)-1H-imidazo[4,5-b]pyrazin-2-yl)piperidin-4-amine] |
| < 0.5 | N[C@@H]1c2ccccc2CC12CCN(c1nc3nc(Sc4cccnc4C(F)(F)F)c(Cl)nc3[nH]1)CC2 [Example 118, (S)-1′-(6-chloro-5-((2-(trifluoromethyl)pyridin-3-yl)thio)-1H-imidazo[4,5-b]pyrazin-2-yl)-1,3-dihydrospiro[indene-2,4′-piperidin]-1-amine] |
| 0.5 to 3 | CC1(N)CCN(c2nc3nc(Sc4cccnc4C(F)(F)F)cnc3s2)CC1 [Example 119, 4-methyl-1-(5-((2-(trifluoromethyl)pyridin-3-yl)thio)thiazolo[4,5-b]pyrazin-2-yl)piperidin-4-amine] |
| > 3 | N[C@@H]1CCCC12CCN(c1nc3ncc(N4CCCc5ncccc54)nc3[nH]1)CC2 [Example 120, (R)-8-(6-(3,4-dihydro-1,5-naphthyridin-1(2H)-yl)-1H-imidazo[4,5-b]pyrazin-2-yl)-8-azaspiro[4.5]decan-1-amine] |
| > 3 | CC1(N)CCN(c2nc3nc(Nc4cccc(Cl)c4Cl)cnc3[nH]2)CC1 [Example 121, 2-(4-amino-4-methylpiperidin-1-yl)-N-(2,3-dichlorophenyl)-1H-imidazo[4,5-b]pyrazin-5-amine] |
| 0.5 to 3 | CC1(N)CCN(c2nc3ncc(Oc4cccc(Cl)c4Cl)nc3[nH]2)CC1 [Example 122, 1-(5-(2,3-dichlorophenoxy)-1H-imidazo[4,5-b]pyrazin-2-yl)-4-methylpiperidin-4-amine] |
| > 3 | FC(F)(F)c1ncccc1Sc1cnc2[nH]c(NCCCN3CCOCC3)nc2n1 [Example 123, N-(3-morpholinopropyl)-5-((2-(trifluoromethyl)pyridin-3-yl)thio)-1H-imidazo[4,5-b]pyrazin-2-amine] |
| 0.5 to 3 | COCCn1c(N2CCC(C)(N)CC2)nc2nc(Sc3cccnc3C(F)(F)F)cnc21 [Example 129, 1-(1-(2-methoxyethyl)-5-((2-(trifluoromethyl)pyridin-3-yl)thio)-1H-imidazo[4,5-b]pyrazin-2-yl)-4-methylpiperidin-4-amine] |
| 0.5 to 3 | CC1(N)CCN(c2nc3ncc(-c4cccc(Cl)c4Cl)nc3[nH]2)CC1 [Example 131, 1-[5-(2,3-Dichlorophenyl)-1H-imidazo[4,5-b]pyrazin-2-yl]-4-methylpiperidin-4-amine] |
| > 3 | NC(=O)Cn1c(N2CCC3(CC2)Cc2ccccc2[C@H]3N)nc2nc(Sc3cccnc3C(F)(F)F)cnc21 [Example 137, (S)-2-(2-(1-amino-1,3-dihydrospiro[indene-2,4′-piperidin]-1′-yl)-5-((2-(trifluoromethyl)pyridin-3-yl)thio)-1H-imidazo[4,5-b]pyrazin-1-yl)acetamide] |
| < 0.5 | Nc1nccc(Sc2cnc3[nH]c(N4CCC5(CC4)Oc4ccccc4[C@H]5N)nc3n2)c1Cl [Example 159, (R)-1′-(5-((2-amino-3-chloropyridin-4-yl)thio)-1H-imidazo[4,5-b]pyrazin-2-yl)-3H-spiro[benzofuran-2,4′-piperidin]-3-amine] |
| < 0.5 | Nc1nccc(Sc2cnc3[nH]c(N4CCC5(CC4)Cc4ccc(O)cc4[C@H]5N)nc3n2)c1Cl [Example 208, (S)-1-amino-1′-(5-((2-amino-3-chloropyridin-4-yl)thio)-1H-imidazo[4,5-b]pyrazin-2-yl)-1,3-dihydrospiro[indene-2,4′-piperidin]-6-ol] |
| < 0.5 | Nc1cnccc1Sc1cnc2[nH]c(N3CCC4(CC3)Cc3ccccc3[C@H]4N)nc2n1 [Example 210, (S)-1′-(5-((3-aminopyridin-4-yl)thio)-1H-imidazo[4,5-b]pyrazin-2-yl)-1,3-dihydrospiro[indene-2,4′-piperidin]-1-amine] |
| < 0.5 | CN(C)c1ncccc1Sc1cnc2[nH]c(N3CCC4(CC3)Cc3ccccc3[C@H]4N)nc2n1 [Example 211, (S)-1′-(5-((2-(dimethylamino)pyridin-3-yl)thio)-1H-imidazo[4,5-b]pyrazin-2-yl)-1,3-dihydrospiro[indene-2,4′-piperidin]-1-amine] |
| < 0.5 | N[C@@H]1c2ccccc2CC12CCN(c1nc3nc(Sc4ccnc5ccsc45)cnc3[nH]1)CC2 [Example 212, (S)-1′-(5-(thieno[3,2-b]pyridin-7-ylthio)-1H-imidazo[4,5-b]pyrazin-2-yl)-1,3-dihydrospiro[indene-2,4′-piperidin]-1-amine] |
| < 0.5 | COc1ncccc1Sc1cnc2[nH]c(N3CCC4(CC3)Cc3ccccc3[C@H]4N)nc2n1 [Example 214, (S)-1′-(5-((2-methoxypyridin-3-yl)thio)-1H-imidazo[4,5-b]pyrazin-2-yl)-1,3-dihydrospiro[indene-2,4′-piperidin]-1-amine] |
